Where two headings read alike, the source gives them in different places.
Experiments:
Mcl-1 protein = Mcl-1 protein (UniProtKB primary accession number: Q07820) (Homo sapiens, UniProt Q07820); test: Inhibition of Mcl-1 by fluorescence polarisation, Method 1; assay type: binding; conditions: read-out: IC50 (M) Mcl-1 FP
Outline: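 Buffer of 10 mM HEPES pH 7.4 with 150 mM NaCl and 0.05% Tween 20 held 5 nM Mcl-1 and 1 nM fluorescein-tagged ligand (final). Compounds were tested as 11-point serial dilutions at 5% final DMSO, and binding was read by FP.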

[1] = test system: H929 multiple myeloma tumour line; test: In vitro cytotoxicity, Microculture Tetrazolium Assay; assay type: cell-based; conditions: H929 cells, 48 hours exposure, read-out: IC50 (μM) MTT H929
Experimental: The cytotoxicity studies were carried out on the H929 multiple myeloma tumour line.
The cells are distributed onto microplates and exposed to the test compounds for 48 hours.

[2] = fluorescence polarisation test, Method 2 values are underlined in the patent (underlining not visible here)
[3] = Homo sapiens, NCI-H929, 48 h, MTT
[4] = fluorescence polarisation, Method 1, or Method 2

Mcl-1 protein, sequence (Q07820 whole entry): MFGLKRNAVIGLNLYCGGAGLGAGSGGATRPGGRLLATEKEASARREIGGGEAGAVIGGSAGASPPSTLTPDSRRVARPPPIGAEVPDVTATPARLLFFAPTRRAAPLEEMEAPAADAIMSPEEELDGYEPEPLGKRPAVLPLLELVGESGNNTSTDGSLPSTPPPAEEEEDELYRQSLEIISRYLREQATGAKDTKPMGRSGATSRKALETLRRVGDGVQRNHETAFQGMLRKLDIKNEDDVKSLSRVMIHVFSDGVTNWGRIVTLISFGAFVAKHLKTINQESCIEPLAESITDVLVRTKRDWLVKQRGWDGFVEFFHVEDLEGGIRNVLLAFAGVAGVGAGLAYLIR

SMILES | IC50 (Mcl-1 protein; [2]) [M] | IC50 [1, 3] [µM] | IC50 (Mcl-1 protein; [4]) [M] | further results
CCCn1nccc1COc1ccccc1CC(Oc1ncnc2sc(-c3ccc(F)o3)c(-c3ccc(OCCN4CCN(C)CC4)c(Cl)c3C)c12)C(=O)O [Example 187, (2R)-2-{[(5Sa)-5-{3-chloro-2-methyl-4-[2-(4-methylpiperazin-1-yl)ethoxy]phenyl}-6-(5-fluorofuran-2-yl)thieno[2,3-d]pyrimidin-4-yl]oxy}-3-{2-[(1-propyl-1H-pyrazol-5-yl)methoxy]phenyl}propanoic acid] | 2.8e-09 | 0.02 |  | 
Cc1ccc(-c2sc3ncnc(OC(Cc4ccccc4)C(=O)O)c3c2-c2ccc(OCCN3CCN(C)CC3)c(Cl)c2C)o1 [Example 499, (2R)-2-{[(5Sa)-5-{3-chloro-2-methyl-4-[2-(4-methylpiperazin-1-yl)ethoxy]phenyl}-6-(5-methylfuran-2-yl)thieno[2,3-d]pyrimidin-4-yl]oxy}-3-phenylpropanoic acid] |  | 1.5 | 1e-07 | 
COCCCSc1nccc(COc2ccccc2CC(Oc2ncnc3sc(-c4ccc(F)cc4)c(-c4ccc(OCCN5CCN(C)CC5)c(Cl)c4C)c23)C(=O)O)n1 [Example 66, (2R)-2-{[(5Sa)-5-{3-chloro-2-methyl-4-[2-(4-methylpiperazin-1-yl)ethoxy]phenyl}-6-(4-fluorophenyl)thieno[2,3-d]pyrimidin-4-yl]oxy}-3-[2-({2-[(3-methoxypropyl)sulfanyl]pyrimidin-4-yl}methoxy)phenyl]propanoic acid] | 4.6e-09 | 0.037 |  | 
CCc1sc2ncnc(OC(Cc3ccccc3)C(=O)O)c2c1-c1ccc(OCCN2CCOCC2)c(Cl)c1C [Example 420, (2R)-2-[((5Sa)-5-{3-chloro-2-methyl-4-[2-(morpholin-4-yl)ethoxy]phenyl}-6-ethylthieno[2,3-d]pyrimidin-4-yl)oxy]-3-phenylpropanoic acid] |  | 15.6 | 4e-08 | 
Cc1c(-c2c(-c3ccco3)sc3ncnc(OC(Cc4ccccc4OCc4ccncc4)C(=O)O)c23)ccc(OCCN2CCN(C)CC2)c1Cl [Example 258, (2R)-2-{[(5Sa)-5-{3-chloro-2-methyl-4-[2-(4-methylpiperazin-1-yl)ethoxy]phenyl}-6-(furan-2-yl)thieno[2,3-d]pyrimidin-4-yl]oxy}-3-[2-(pyridin-4-ylmethoxy)phenyl]propanoic acid] | 6.6e-09 | 0.069 |  | 
Cc1c(-c2c(-c3ccc(F)cc3)sc3ncnc(OC(Cc4ccccc4OCc4ccnc(-c5ccc(Cl)nc5)n4)C(=O)O)c23)ccc(OCCN2CCN(C)CC2)c1Cl [Example 110, (2R)-2-{[(5Sa)-5-{3-chloro-2-methyl-4-[2-(4-methylpiperazin-1-yl)ethoxy]phenyl}-6-(4-fluorophenyl)thieno[2,3-d]pyrimidin-4-yl]oxy}-3-(2-{[2-(6-chloropyridin-3-yl)pyrimidin-4-yl]methoxy}phenyl)propanoic acid] | 4.3e-09 | 0.022 |  | 
COc1ccccc1CC(Oc1ncnc2sc(-c3ccc(F)cc3)c(-c3ccc(OCCN4CCN(C)CC4)c(Br)c3C)c12)C(=O)O [Example 646, (2R)-2-{[(5Sa)-5-{3-bromo-2-methyl-4-[2-(4-methylpiperazin-1-yl)ethoxy]phenyl}-6-(4-fluorophenyl)thieno[2,3-d]pyrimidin-4-yl]oxy}-3-(2-methoxyphenyl)propanoic acid] |  | 0.298 | 2.1e-08 | 
COc1ccccc1C[C@@H](Oc1ncnc2sc(-c3ccc(F)c(F)c3)c(-c3ccc(OCCN4CCN(C)CC4)c(Cl)c3C)c12)C(=O)O [Example 533, (2R)-2-{[(5Sa)-5-{3-chloro-2-methyl-4-[2-(4-methylpiperazin-1-yl)ethoxy]phenyl}-6-(3,4-difluorophenyl)thieno[2,3-d]pyrimidin-4-yl]oxy}-3-(2-methoxyphenyl)propanoic acid] |  |  | 2.8e-08 | IC50 ([1]; MTT): 0.201 µM
Cc1c(-c2c(-c3ccc(F)cc3)sc3ncnc(OC(Cc4ccccc4OCc4ccnc(C(F)(F)F)c4)C(=O)O)c23)ccc(OCCN2CCN(C)CC2)c1Cl [Example 17, (2R)-2-{[(5Sa)-5-{3-chloro-2-methyl-4-[2-(4-methylpiperazin-1-yl)ethoxy]phenyl}-6-(4-fluorophenyl)thieno[2,3-d]pyrimidin-4-yl]oxy}-3-(2-{[2-(trifluoromethyl)pyridin-4-yl]methoxy}phenyl)propanoic acid] | 1.2e-08 | 0.062 |  | 
COc1ccccc1CC(Oc1ncnc2sc(-c3ccco3)c(-c3ccc(OC4CN5CCC4CC5)c(Cl)c3C)c12)C(=O)O (single isomer, unassigned) [Example 308, (2R)-2-({(5Sa)-5-[4-((3R or S)-1-azabicyclo[2.2.2]oct-3-yloxy)-3-chloro-2-methylphenyl]-6-(furan-2-yl)thieno[2,3-d]pyrimidin-4-yl}oxy)-3-(2-methoxyphenyl)propanoic acid] | 5.9e-09 |  |  | IC50 ([1]; MTT): 1.5 µM
CCCCn1nccc1COc1ccccc1CC(Oc1ncnc2sc(-c3ccc(NCCOC)nc3)c(-c3ccc(OCCN4CCN(C)CC4)c(Cl)c3C)c12)C(=O)O [Example 620, (2R)-3-{2-[(1-butyl-1H-pyrazol-5-yl)methoxy]phenyl}-2-[((5Sa)-5-{3-chloro-2-methyl-4-[2-(4-methylpiperazin-1-yl)ethoxy]phenyl}-6-{6-[(2-methoxyethyl)amino]pyridin-3-yl}thieno[2,3-d]pyrimidin-4-yl)oxy]propanoic acid] |  | 0.532 | 5.9e-09 | 
CCCCCn1nccc1C(C)Oc1ccccc1CC(Oc1ncnc2sc(-c3ccc(F)cc3)c(-c3ccc(OCCN4CCN(C)CC4)c(Cl)c3C)c12)C(=O)O (single isomer, unassigned) [Example 6, (2R)-2-{[(5Sa)-5-{3-chloro-2-methyl-4-[2-(4-methylpiperazin-1-yl)ethoxy]phenyl}-6-(4-fluorophenyl)thieno[2,3-d]pyrimidin-4-yl]oxy}-3-{2-[(1S or R)-1-(1-pentyl-1H-pyrazol-5-yl)ethoxy]phenyl}propanoic acid] | 4.9e-09 |  |  | IC50 ([1]; MTT): 0.332 µM
CCCCn1nccc1COc1ccccc1CC(Oc1ncnc2sc(-c3ccc(OCCN4CCOCC4)nc3)c(-c3ccc(OCCN4CCN(C)CC4)c(Cl)c3C)c12)C(=O)O [Example 621, (2R)-3-{2-[(1-butyl-1H-pyrazol-5-yl)methoxy]phenyl}-2-[((5Sa)-5-{3-chloro-2-methyl-4-[2-(4-methylpiperazin-1-yl)ethoxy]phenyl}-6-{6-[2-(morpholin-4-yl)ethoxy]pyridin-3-yl}thieno[2,3-d]pyrimidin-4-yl)oxy]propanoic acid] |  | 0.095 | 5.3e-09 | 
COc1ccccc1CC(Oc1ncnc2sc(-c3ccco3)c(-c3ccc(OCCN4CCN(C(C)C)CC4)c(Cl)c3C)c12)C(=O)O [Example 324, (2R)-2-{[(5Sa)-5-(3-chloro-2-methyl-4-{2-[4-(propan-2-yl)piperazin-1-yl]ethoxy}phenyl)-6-(furan-2-yl)thieno[2,3-d]pyrimidin-4-yl]oxy}-3-(2-methoxyphenyl)propanoic acid] | 1.5e-08 | 0.254 |  | 
Cc1c(-c2c(-c3ccc(F)cc3)sc3ncnc(OC(Cc4ccccc4OCc4ccnc(-c5ccoc5)n4)C(=O)O)c23)ccc(OCCN2CCN(C)CC2)c1Cl [Example 35, (2R)-2-{[(5Sa)-5-{3-chloro-2-methyl-4-[2-(4-methylpiperazin-1-yl)ethoxy]phenyl}-6-(4-fluorophenyl)thieno[2,3-d]pyrimidin-4-yl]oxy}-3-(2-{[2-(furan-3-yl)pyrimidin-4-yl]methoxy}phenyl)propanoic acid] | 4.8e-09 | 0.027 |  | 
COc1ccccc1C[C@@H](Oc1ncnc2sc(-c3ccco3)c(-c3ccc(OCCN4CCN(C)CC4)c(Cl)c3F)c12)C(=O)O [Example 337, (2R)-2-{[5-{3-chloro-2-fluoro-4-[2-(4-methylpiperazin-1-yl)ethoxy]phenyl}-6-(furan-2-yl)thieno[2,3-d]pyrimidin-4-yl]oxy}-3-(2-methoxyphenyl)propanoic acid] | 3.8e-08 | 1.87 |  | 
COc1ccccc1-c1nccc(COc2ccccc2CC(Oc2ncnc3sc(-c4ccccc4F)c(-c4ccc(OCCN5CCN(C)CC5)c(Cl)c4C)c23)C(=O)O)n1 [Example 835, (2R)-2-{[(5Sa)-5-{3-chloro-2-methyl-4-[2-(4-methylpiperazin-1-yl)ethoxy]phenyl}-6-(2-fluorophenyl)thieno[2,3-d]pyrimidin-4-yl]oxy}-3-(2-{[2-(2-methoxyphenyl)pyrimidin-4-yl]methoxy}phenyl)propanoic acid] |  |  |  | IC50 (Mcl-1 protein; fluorescence polarisation test, Method 1, or Method 2 where the value is underlined (underlining not visible)): 2.9e-09 M; IC50 ([1]; Homo sapiens, NCI-H929, 48 h, cell viability): 0.002 µM
Cc1c(-c2c(-c3ccc(F)cc3)sc3ncnc(OC(Cc4ccccc4OCc4cnccn4)C(=O)O)c23)ccc(OCC2CCN(C)C2)c1Cl [Example 145, (2R)-2-{[(5Sa)-5-{3-chloro-2-methyl-4-[(1-methylpyrrolidin-3-yl)methoxy]phenyl}-6-(4-fluorophenyl)thieno[2,3-d]pyrimidin-4-yl]oxy}-3-[2-(pyrazin-2-ylmethoxy)phenyl]propanoic acid] | 1.1e-08 |  |  | IC50 ([1]; MTT): 0.293 µM
Cc1c(-c2c(-c3ccco3)sc3ncnc(OC(Cc4ccccc4OCc4cncnc4)C(=O)O)c23)ccc(OCCN2CCN(C)CC2)c1Cl [Example 277, (2R)-2-{[(5Sa)-5-{3-chloro-2-methyl-4-[2-(4-methylpiperazin-1-yl)ethoxy]phenyl}-6-(furan-2-yl)thieno[2,3-d]pyrimidin-4-yl]oxy}-3-[2-(pyrimidin-5-ylmethoxy)phenyl]propanoic acid] | 4.8e-09 | 0.07 |  | 
